Source: the kinase profiling compilation of Christmann-Franck et al. (2016)

Legend:
Test in all cases: radiometric filter-binding kinase assay, Kinase HotSpot
Conditions in all cases: compound 0.5 µM; ATP 10 µM
[1] = target: MET (human) (UniProt P08581)
[2] = target: MYLK2 (human) (UniProt Q9H1R3)
[3] = target: MARK4 (human) (UniProt Q96L34)
[4] = target: CAMK2A (human) (UniProt Q9UQM7)
[5] = target: INSRR (human) (UniProt P14616)
[6] = target: DYRK1A (human) (UniProt Q13627)
[7] = target: PLK1 (human) (UniProt P53350)
[8] = target: STK24 (human) (UniProt Q9Y6E0)
[9] = target: BRAF (human) (UniProt P15056)
[10] = target: PRKACG (human) (UniProt P22612)
[11] = target: EPHB1 (human) (UniProt P54762)
[12] = target: CDC42BPB (human) (UniProt Q9Y5S2)
[13] = target: AURKC (human) (UniProt Q9UQB9)
[14] = target: GSK3A (human) (UniProt P49840)
[15] = target: ULK3 (human) (UniProt Q6PHR2)
[16] = target: MAP3K9 (human) (UniProt P80192)
[17] = target: EPHA6 (human) (UniProt Q9UF33)
[18] = target: CDK4 CCND1 (human) (UniProt P24385+P11802)
[19] = target: MAP4K2 (human) (UniProt Q12851)
[20] = target: AURKA (human) (UniProt O14965)
[21] = target: PKN2 (human) (UniProt Q16513)
[22] = target: STK38 (human) (UniProt Q15208)
[23] = target: LRRK2 (human) (UniProt Q5S007)
[24] = target: JAK1 JH1 catalytic (human) (UniProt P23458)
[25] = target: CSNK2A2 (human) (UniProt P19784)
[26] = target: LTK (human) (UniProt P29376)
[27] = target: CSNK1G1 (human) (UniProt Q9HCP0)
[28] = target: MAP3K5 (human) (UniProt Q99683)
[29] = target: SRMS (human) (UniProt Q9H3Y6)
[30] = target: IGF1R (human) (UniProt P08069)
[31] = target: MERTK (human) (UniProt Q12866)
[32] = target: CDK5 CDK5R1 p35 (human) (UniProt Q00535+Q15078)
[33] = target: WNK3 (human) (UniProt Q9BYP7)
[34] = target: MYO3B (human) (UniProt Q8WXR4)
[35] = target: MAPK9 (human) (UniProt P45984)
[36] = target: TLK2 (human) (UniProt Q86UE8)
[37] = target: FRK (human) (UniProt P42685)
[38] = target: PBK (human) (UniProt Q96KB5)
[39] = target: KDR (human) (UniProt P35968)
[40] = target: EPHB2 (human) (UniProt P29323)

CAMK2A (human), sequence (Q9UQM7 whole entry, looked up): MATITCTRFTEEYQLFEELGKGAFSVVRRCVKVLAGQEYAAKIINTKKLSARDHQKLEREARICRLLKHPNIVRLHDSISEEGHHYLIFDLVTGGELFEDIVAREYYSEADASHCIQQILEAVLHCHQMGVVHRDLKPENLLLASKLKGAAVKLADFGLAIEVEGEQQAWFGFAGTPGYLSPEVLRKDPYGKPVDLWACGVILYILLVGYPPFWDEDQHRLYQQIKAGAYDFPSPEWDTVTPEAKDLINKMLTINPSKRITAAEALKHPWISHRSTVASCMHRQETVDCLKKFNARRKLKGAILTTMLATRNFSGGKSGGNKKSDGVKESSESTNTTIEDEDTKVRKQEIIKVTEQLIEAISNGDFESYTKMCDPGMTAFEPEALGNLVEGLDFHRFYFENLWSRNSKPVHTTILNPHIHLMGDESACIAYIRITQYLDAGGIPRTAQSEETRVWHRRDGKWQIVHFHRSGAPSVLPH
LTK (human), sequence (P29376 whole entry, looked up): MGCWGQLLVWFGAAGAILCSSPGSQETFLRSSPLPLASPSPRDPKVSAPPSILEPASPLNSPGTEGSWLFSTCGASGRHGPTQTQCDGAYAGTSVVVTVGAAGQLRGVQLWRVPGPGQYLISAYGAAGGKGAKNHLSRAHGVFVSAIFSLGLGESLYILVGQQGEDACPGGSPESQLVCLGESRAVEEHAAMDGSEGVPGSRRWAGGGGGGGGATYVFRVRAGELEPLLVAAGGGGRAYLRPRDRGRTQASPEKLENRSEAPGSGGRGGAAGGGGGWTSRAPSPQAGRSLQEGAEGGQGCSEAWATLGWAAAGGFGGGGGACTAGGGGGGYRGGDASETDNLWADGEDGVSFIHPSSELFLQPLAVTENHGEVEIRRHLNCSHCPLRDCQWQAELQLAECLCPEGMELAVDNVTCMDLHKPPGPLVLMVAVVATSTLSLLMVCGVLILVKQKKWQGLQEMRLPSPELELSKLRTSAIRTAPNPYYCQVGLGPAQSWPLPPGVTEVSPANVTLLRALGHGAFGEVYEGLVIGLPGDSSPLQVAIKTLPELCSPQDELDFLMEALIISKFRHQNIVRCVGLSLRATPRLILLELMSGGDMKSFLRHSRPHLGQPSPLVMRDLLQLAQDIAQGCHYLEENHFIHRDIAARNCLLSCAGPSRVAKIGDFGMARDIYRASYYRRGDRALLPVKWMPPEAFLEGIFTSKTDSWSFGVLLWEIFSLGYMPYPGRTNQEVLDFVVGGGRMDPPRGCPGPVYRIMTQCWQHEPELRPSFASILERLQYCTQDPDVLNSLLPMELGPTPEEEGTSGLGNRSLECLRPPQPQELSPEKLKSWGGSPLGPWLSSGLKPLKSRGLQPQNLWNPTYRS
PKN2 (human), sequence (Q16513 whole entry, looked up): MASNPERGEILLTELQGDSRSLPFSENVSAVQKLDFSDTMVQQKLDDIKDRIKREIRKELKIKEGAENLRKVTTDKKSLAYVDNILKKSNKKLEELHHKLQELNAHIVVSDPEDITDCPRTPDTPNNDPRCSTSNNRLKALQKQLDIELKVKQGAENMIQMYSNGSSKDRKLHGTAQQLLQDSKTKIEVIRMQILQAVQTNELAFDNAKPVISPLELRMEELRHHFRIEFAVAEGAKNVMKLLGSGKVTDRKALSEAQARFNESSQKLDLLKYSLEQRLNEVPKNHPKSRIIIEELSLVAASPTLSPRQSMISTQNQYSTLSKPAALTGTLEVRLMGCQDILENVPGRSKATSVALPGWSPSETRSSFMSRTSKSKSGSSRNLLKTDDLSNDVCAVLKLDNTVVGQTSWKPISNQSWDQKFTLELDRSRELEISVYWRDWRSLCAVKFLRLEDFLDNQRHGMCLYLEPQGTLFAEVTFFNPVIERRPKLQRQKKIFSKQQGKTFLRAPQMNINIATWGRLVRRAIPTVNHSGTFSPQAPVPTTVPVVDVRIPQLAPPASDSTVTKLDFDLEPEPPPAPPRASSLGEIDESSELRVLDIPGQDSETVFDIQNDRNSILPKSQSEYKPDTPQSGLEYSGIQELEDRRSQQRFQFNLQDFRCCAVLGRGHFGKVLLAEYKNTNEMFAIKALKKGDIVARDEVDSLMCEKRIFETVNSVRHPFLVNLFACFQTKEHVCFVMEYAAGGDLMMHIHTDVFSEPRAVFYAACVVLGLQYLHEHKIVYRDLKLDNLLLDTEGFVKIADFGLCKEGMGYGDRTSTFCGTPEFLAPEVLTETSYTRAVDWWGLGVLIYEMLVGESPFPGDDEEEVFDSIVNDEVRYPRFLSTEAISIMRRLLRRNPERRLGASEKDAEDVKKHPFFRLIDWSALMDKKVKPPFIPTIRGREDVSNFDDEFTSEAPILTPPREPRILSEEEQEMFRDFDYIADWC
CSNK2A2 (human), sequence (P19784 whole entry, looked up): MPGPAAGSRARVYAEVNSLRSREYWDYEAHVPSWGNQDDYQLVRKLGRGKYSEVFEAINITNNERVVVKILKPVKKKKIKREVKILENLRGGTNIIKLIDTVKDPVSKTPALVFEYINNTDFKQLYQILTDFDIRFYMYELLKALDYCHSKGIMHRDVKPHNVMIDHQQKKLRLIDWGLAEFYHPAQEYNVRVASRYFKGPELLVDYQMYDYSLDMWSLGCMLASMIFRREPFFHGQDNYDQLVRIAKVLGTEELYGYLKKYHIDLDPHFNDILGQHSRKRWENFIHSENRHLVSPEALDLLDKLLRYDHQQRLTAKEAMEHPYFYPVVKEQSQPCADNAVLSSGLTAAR
MAPK9 (human), sequence (P45984 whole entry, looked up): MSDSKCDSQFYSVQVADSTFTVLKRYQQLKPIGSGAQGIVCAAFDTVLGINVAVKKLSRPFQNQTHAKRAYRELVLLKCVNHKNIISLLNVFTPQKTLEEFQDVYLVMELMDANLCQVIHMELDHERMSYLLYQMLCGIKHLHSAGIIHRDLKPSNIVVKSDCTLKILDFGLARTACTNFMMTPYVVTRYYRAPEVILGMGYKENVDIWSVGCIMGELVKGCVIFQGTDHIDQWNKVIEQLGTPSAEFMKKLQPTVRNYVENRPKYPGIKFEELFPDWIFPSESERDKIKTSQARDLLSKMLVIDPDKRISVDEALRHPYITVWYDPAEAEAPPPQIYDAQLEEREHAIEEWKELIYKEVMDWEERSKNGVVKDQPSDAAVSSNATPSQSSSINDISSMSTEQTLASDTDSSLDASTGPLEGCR
EPHB1 (human), sequence (P54762 whole entry, looked up): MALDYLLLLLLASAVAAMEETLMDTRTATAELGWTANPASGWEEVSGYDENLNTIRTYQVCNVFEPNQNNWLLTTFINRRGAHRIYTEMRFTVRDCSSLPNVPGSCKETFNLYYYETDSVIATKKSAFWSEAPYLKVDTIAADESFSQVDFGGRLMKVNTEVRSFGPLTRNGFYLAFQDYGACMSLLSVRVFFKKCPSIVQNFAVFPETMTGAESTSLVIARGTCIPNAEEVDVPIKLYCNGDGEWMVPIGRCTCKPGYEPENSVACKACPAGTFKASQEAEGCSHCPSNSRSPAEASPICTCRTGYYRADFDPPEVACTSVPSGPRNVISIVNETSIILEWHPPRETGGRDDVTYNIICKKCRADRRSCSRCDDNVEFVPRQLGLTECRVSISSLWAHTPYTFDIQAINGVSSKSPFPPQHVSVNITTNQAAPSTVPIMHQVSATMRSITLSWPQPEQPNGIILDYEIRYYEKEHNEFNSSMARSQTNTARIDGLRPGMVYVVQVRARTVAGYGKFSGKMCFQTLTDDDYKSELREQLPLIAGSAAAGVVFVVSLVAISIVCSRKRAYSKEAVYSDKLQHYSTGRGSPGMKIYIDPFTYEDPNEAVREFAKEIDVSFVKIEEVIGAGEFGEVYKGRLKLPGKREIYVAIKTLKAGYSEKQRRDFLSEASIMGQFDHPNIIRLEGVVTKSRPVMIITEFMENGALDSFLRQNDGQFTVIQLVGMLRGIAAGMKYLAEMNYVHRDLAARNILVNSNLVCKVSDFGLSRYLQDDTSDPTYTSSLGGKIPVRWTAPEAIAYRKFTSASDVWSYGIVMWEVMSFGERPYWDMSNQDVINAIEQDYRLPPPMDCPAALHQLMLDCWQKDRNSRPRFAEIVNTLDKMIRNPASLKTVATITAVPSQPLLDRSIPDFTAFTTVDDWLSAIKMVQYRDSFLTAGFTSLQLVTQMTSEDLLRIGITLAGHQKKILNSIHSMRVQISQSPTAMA
BRAF (human), sequence (P15056 whole entry, looked up): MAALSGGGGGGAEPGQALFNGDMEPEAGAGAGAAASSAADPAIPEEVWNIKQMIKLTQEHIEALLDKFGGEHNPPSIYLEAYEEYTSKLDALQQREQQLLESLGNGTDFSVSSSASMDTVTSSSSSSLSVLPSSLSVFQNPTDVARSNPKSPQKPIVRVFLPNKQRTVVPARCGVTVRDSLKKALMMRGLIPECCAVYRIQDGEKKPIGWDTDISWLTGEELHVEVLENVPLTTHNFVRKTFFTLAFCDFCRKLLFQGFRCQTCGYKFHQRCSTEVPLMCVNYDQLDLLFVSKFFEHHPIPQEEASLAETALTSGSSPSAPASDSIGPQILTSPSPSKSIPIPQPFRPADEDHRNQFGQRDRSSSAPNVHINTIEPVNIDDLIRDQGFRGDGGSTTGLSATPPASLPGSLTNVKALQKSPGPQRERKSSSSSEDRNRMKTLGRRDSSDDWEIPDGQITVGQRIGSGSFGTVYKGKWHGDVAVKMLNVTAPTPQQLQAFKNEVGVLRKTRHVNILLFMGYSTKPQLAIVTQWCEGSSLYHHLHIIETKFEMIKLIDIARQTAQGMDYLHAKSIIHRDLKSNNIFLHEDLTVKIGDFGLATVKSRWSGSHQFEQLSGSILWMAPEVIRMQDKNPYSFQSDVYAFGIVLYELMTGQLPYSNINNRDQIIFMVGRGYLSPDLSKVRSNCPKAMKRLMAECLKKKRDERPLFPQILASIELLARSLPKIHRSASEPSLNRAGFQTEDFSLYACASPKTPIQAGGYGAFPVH

SMILES	residual activity [2] [%]	residual activity [3] [%]	residual activity [4] [%]	residual activity [5] [%]	residual activity [6] [%]	residual activity [7] [%]	residual activity [8] [%]	residual activity [10] [%]	residual activity [11] [%]	residual activity [12] [%]	residual activity [13] [%]	residual activity [14] [%]	residual activity [15] [%]	residual activity [16] [%]	residual activity [17] [%]	residual activity [18] [%]	residual activity [19] [%]	residual activity [20] [%]	residual activity [21] [%]	residual activity [22] [%]	further results
COc1cc2ncc(-c3ccccc3)nc2cc1OC	100	85.3	99.5	99.2	97.2	98.5	104	87.6	92.8	93.3	90.1	97.9	89.4	85.4	90.4	103	99.2	90.3	88.3	95.9	residual activity [1]: 92.6%; residual activity [9]: 93.2%; residual activity [23]: 84.9%; residual activity [24]: 91.5%; residual activity [25]: 98.3%; residual activity [26]: 97.9%; residual activity [27]: 90.1%; residual activity [28]: 108%; residual activity [29]: 102%; residual activity [30]: 91.1%; residual activity [31]: 80%; residual activity [32]: 95.8%; residual activity [33]: 97.5%; residual activity [34]: 84.6%; residual activity [35]: 93.1%; residual activity [36]: 96.3%; residual activity [37]: 99.3%; residual activity [38]: 85.5%; residual activity [39]: 85.4%
CN([C@@H](Cc1ccc(OS(=O)(=O)c2cccc3cnccc23)cc1)C(=O)N1CCN(c2ccccc2)CC1)S(=O)(=O)c1cccc2cnccc12	98.8	98.8	107	94.9	102	96.7	102	107	94.2	103	98.2	99.8	98.6	104	94.9	95.3	89.5	86.2	98.6	97.2	residual activity [1]: 114%; residual activity [40]: 103%; residual activity [23]: 97.1%; residual activity [24]: 108%; residual activity [25]: 121%; residual activity [26]: 102%; residual activity [27]: 102%; residual activity [28]: 99.2%; residual activity [29]: 103%; residual activity [30]: 105%; residual activity [31]: 100%; residual activity [32]: 99.5%; residual activity [33]: 101%; residual activity [34]: 88.5%; residual activity [35]: 85.6%; residual activity [36]: 100%; residual activity [37]: 101%; residual activity [38]: 99.2%; residual activity [39]: 100%
Nc1nccc(-c2c(-c3ccc(F)cc3)ncn2C2CCNCC2)n1	103	97.4	100	103	96.3	101	98.8	105	99.9	101	97.8	97.5	95.5	94.5	78	99.9	102	100	97.1	99.8	residual activity [1]: 104%; residual activity [9]: 103%; residual activity [40]: 103%; residual activity [23]: 99.9%; residual activity [24]: 104%; residual activity [25]: 92.2%; residual activity [26]: 97.3%; residual activity [27]: 83.1%; residual activity [28]: 102%; residual activity [29]: 97.5%; residual activity [30]: 104%; residual activity [31]: 98%; residual activity [32]: 102%; residual activity [33]: 95.3%; residual activity [34]: 97.9%; residual activity [36]: 95.1%; residual activity [37]: 95.4%; residual activity [38]: 94.9%; residual activity [39]: 102%
O=C1Cc2c([nH]c3ccc(Br)cc23)-c2ccccc2N1	96.8	60.2	105	95.8	98.8	94.9	84.8	105	93.5	95.9	90.9	5.87	83.2	64.6	93.7	84	20.1	99.7	96.8	98.6	residual activity [9]: 97.7%; residual activity [40]: 95.5%; residual activity [23]: 78.7%; residual activity [24]: 102%; residual activity [25]: 74.6%; residual activity [26]: 91.8%; residual activity [27]: 102%; residual activity [28]: 99.2%; residual activity [29]: 105%; residual activity [30]: 103%; residual activity [31]: 89.5%; residual activity [32]: 70.8%; residual activity [33]: 95.5%; residual activity [34]: 97.4%; residual activity [35]: 93.8%; residual activity [36]: 99.4%; residual activity [37]: 97.4%; residual activity [38]: 99.3%; residual activity [39]: 98.1%
Cn1nc2c3c(cccc31)C(=O)c1ccccc1-2	78.8	91.1	106	82.7	94.1	97	98.6	107	94.6	98	89.3	91.1	94.9	99.4	87.6	98.9	75.4	89.4	97.3	98.5	residual activity [1]: 107%; residual activity [40]: 104%; residual activity [23]: 55.9%; residual activity [24]: 110%; residual activity [25]: 86.6%; residual activity [26]: 86.7%; residual activity [27]: 102%; residual activity [28]: 93.1%; residual activity [29]: 104%; residual activity [30]: 95.9%; residual activity [31]: 95.9%; residual activity [32]: 105%; residual activity [33]: 92%; residual activity [34]: 97.7%; residual activity [35]: 85.2%; residual activity [36]: 101%; residual activity [37]: 94.3%; residual activity [38]: 108%; residual activity [39]: 101%
